Laboratory results: the supplement of paper PMC10307832

How the values were obtained:
Assay in all cases: relative viability (nuclei count vs DMSO), 5 days (fraction); higher = more cells survive
Serdemetan + Palbociclib = compound: c1ccc2c(CCNc3ccc(Nc4ccncc4)cc3)c[nH]c2c1 [Serdemetan] + CC(=O)c1c(C)c2cnc(Nc3ccc(N4CCNCC4)cn3)nc2n(C2CCCC2)c1=O [Palbociclib] (partner 0.5 µM)
How it was run: (§1)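 After 5 days of treatment, lung cancer cells in 1536-well plates were fixed and stained in a single step (final 0.05% Triton X-100, 1% formaldehyde, 1 ug/ml Hoechst) and their nuclei counted on 4× images. Treatment had been applied by pin tool the day after seeding as one drug alone or as a fixed anchor-drug dose with five library-drug doses (not always all listed) in √10 steps. Relative viability is the nuclei count of treated wells divided by that of vehicle wells, and values are medians of duplicate plates.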

Serdemetan + AZD7762 = compound: c1ccc2c(CCNc3ccc(Nc4ccncc4)cc3)c[nH]c2c1 [Serdemetan] + NC(=O)Nc1cc(-c2cccc(F)c2)sc1C(=O)N[C@H]1CCCNC1 [AZD7762] (partner 0.2 µM)
How it was run: as §1

Serdemetan + Bortezomib = compound: c1ccc2c(CCNc3ccc(Nc4ccncc4)cc3)c[nH]c2c1 [Serdemetan] + CC(C)C[C@H](NC(=O)[C@H](Cc1ccccc1)NC(=O)c1cnccn1)B(O)O [Bortezomib] (partner 0.002 µM)
How it was run: as §1

Selisistat + Alpelisib = compound: C1CC(C2=C(C1)C3=C(N2)C=CC(=C3)Cl)C(=O)N [Selisistat] + Cc1nc(NC(=O)N2CCC[C@H]2C(N)=O)sc1-c1ccnc(C(C)(C)C(F)(F)F)c1 [Alpelisib] (partner 2 µM)
How it was run: as §1

Cell Line | relative viability (Serdemetan + Palbociclib; first compound 0.04 µM) | relative viability (Serdemetan + Palbociclib; first compound 0.1265 µM) | relative viability (Serdemetan + Palbociclib; first compound 0.4 µM) | relative viability (Serdemetan + Palbociclib; first compound 1.265 µM) | relative viability (Serdemetan + Palbociclib; first compound 4 µM) | relative viability (Serdemetan + AZD7762; first compound 0.04 µM) | relative viability (Serdemetan + AZD7762; first compound 0.1265 µM) | relative viability (Serdemetan + AZD7762; first compound 0.4 µM) | relative viability (Serdemetan + AZD7762; first compound 1.265 µM) | relative viability (Serdemetan + AZD7762; first compound 4 µM) | relative viability (Serdemetan + Bortezomib; first compound 0.04 µM) | relative viability (Serdemetan + Bortezomib; first compound 0.1265 µM) | relative viability (Serdemetan + Bortezomib; first compound 0.4 µM) | relative viability (Serdemetan + Bortezomib; first compound 1.265 µM) | relative viability (Serdemetan + Bortezomib; first compound 4 µM) | relative viability (Selisistat + Alpelisib; first compound 0.4 µM) | relative viability (Selisistat + Alpelisib; first compound 1.265 µM) | relative viability (Selisistat + Alpelisib; first compound 12.65 µM) | relative viability (Selisistat + Alpelisib; first compound 40 µM) | relative viability (Selisistat + Alpelisib; first compound 4 µM)
NCI-H522 | 1.01 | 0.954 | 0.899 | 0.681 | 0.856 | 0.731 | 0.699 | 0.931 | 1.04 | 0.801 | – | – | – | – | – | – | – | – | – | –
HCC-15 | 0.697 | 0.757 | 0.668 | 0.56 | 0.556 | 0.952 | 1.49 | 1.23 | 0.72 | 1.07 | 1 | 1.01 | 1.01 | 0.954 | 0.855 | 1.04 | 0.9 | 0.775 | 0.878 | –
A-427 | 0.533 | 0.497 | 0.525 | 0.462 | 0.444 | 0.759 | 0.671 | 0.664 | 0.538 | 0.495 | 0.954 | 1.03 | 0.959 | 0.662 | 0.598 | 1.08 | 1.09 | 1.14 | 1.12 | 1.02
NCI-H2228 | 0.644 | 0.61 | 0.511 | 0.115 | 0.233 | – | – | – | – | – | 1.34 | 1.02 | 0.974 | 0.404 | 0.301 | 0.721 | 0.687 | 0.691 | 0.647 | 0.587
NCI-H1734 | 0.296 | 0.23 | 0.229 | 0.166 | 0.212 | 0.375 | 0.268 | 0.266 | 0.104 | 0.144 | 0.908 | – | 0.677 | 0.158 | 0.18 | 0.744 | 0.621 | 0.739 | 0.706 | 0.697
PC-14 | 0.546 | 0.546 | – | 0.467 | 0.346 | 0.327 | 0.357 | 0.204 | 0.304 | 0.161 | 0.924 | 0.797 | 0.791 | 0.606 | 0.497 | 0.918 | 0.885 | 0.952 | 1.1 | 0.994
NCI-H1915 | 0.483 | 0.52 | 0.482 | 0.434 | 0.39 | 0.685 | 0.656 | 0.763 | 0.536 | 0.503 | 0.957 | 0.974 | 1.02 | 0.723 | 0.86 | 1.08 | 1.03 | 1.05 | 1.04 | 1.09
NCI-H1666 | 0.645 | 0.655 | 0.63 | – | 0.66 | 0.812 | 0.721 | 0.731 | 0.691 | 0.634 | 0.97 | 0.761 | 0.838 | 0.868 | 0.534 | 1.06 | 0.978 | 0.847 | 0.748 | 0.946
HCC-366 | 0.351 | 0.281 | 0.0795 | 0.0413 | 0.0782 | 0.124 | 0.0954 | 0.0688 | 0.0374 | 0.0632 | 1.08 | 1.04 | 1.03 | 0.0358 | 0.0541 | 0.341 | 0.337 | 0.397 | 0.354 | 0.268
SK-MES-1 | 0.271 | 0.309 | 0.285 | 0.302 | 0.325 | – | – | – | – | – | – | – | – | – | – | 1.01 | 0.951 | 0.838 | 0.896 | 0.836
SW 1573 | 0.446 | 0.362 | 0.444 | 0.343 | 0.234 | – | – | – | – | – | 0.931 | 1.01 | 0.892 | 0.308 | 0.242 | 0.703 | 0.884 | 0.804 | 0.864 | 0.716
NCI-H661 | 0.387 | 0.416 | 0.411 | 0.382 | 0.393 | – | – | – | – | – | 0.78 | 0.909 | 0.766 | 0.84 | 0.74 | 0.766 | 0.675 | 0.508 | 0.546 | 0.555
PC-3 [JPC-3] | 0.562 | 0.492 | 0.528 | 0.467 | 0.519 | 0.823 | 0.759 | 0.802 | 0.591 | 0.71 | 0.868 | 0.861 | – | 0.755 | 0.812 | 1.08 | 0.973 | 1.02 | 1.05 | 1.05
Calu-6 | – | – | – | – | – | – | – | – | – | – | 1.1 | 0.969 | 1.04 | 0.864 | 0.672 | 1.02 | 0.896 | 0.841 | 0.873 | 1.01
LC-2-ad | 0.438 | 0.449 | 0.507 | 0.471 | 0.44 | 0.806 | 0.836 | 0.791 | 0.737 | 0.709 | 0.921 | 0.927 | 1.04 | – | 0.912 | 1.02 | 0.853 | 0.848 | 0.901 | 0.89
CAL-12T | 0.467 | 0.422 | 0.35 | 0.424 | 0.539 | 0.557 | 0.609 | 0.555 | 0.547 | 0.599 | – | 1.11 | – | 0.931 | 1.04 | 1.29 | 1.07 | 1.16 | 1.19 | 1.14
RERF-LC-KJ | 1.06 | 0.962 | 0.975 | 1.04 | 0.824 | 1.03 | 0.547 | 0.806 | 0.897 | 0.94 | 1.19 | 1.16 | 1.06 | 1.03 | 0.797 | 0.853 | 0.754 | 0.789 | 0.73 | 0.632
NCI-H1650 | 0.318 | 0.275 | 0.282 | 0.257 | 0.262 | – | – | – | – | – | 0.196 | 0.223 | 0.188 | 0.171 | 0.188 | – | – | – | – | –
BEN | 0.513 | 0.494 | 0.504 | 0.365 | 0.449 | 0.75 | 0.545 | 0.662 | 0.556 | 0.641 | 0.785 | 0.924 | 0.766 | 0.48 | 0.763 | 0.953 | 0.986 | 0.9 | 0.884 | 0.818
